Consider three compounds from paper PMC10054477, “Design, Synthesis, and Biological Evaluation of Sulfonamide Methoxypyridine Derivatives as Novel PI3K/mTOR Dual Inhibitors” (Pharmaceuticals, 2023).

Assay [1] concerns HCT-116 cells. As to the kind of experiment: CCK-8 cell viability assay, HCT-116. It counts as cell-based. The settings on record: Homo sapiens, mean (n = 3). The procedure, abridged: (§1)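 MCF-7 and HCT-116 cells were seeded at 5000 cells/well, cultured 24 h, then exposed to test compound for 72 h at 37 °C, 5% CO2. Viability was read with CCK-8 (1 h) as OD at 450 nm, and IC50 was calculated from the readings.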
Background: Formazan colour is commonly taken as a measure of viable cells.

The target of a further assay is T1, PI3Kα (Homo sapiens, UniProt P42336).
T1 construct: purchased SignalChem P27-122DH
As to the kind of experiment: ADP-Glo kinase assay, PI3Kα enzyme inhibition. The note with it: for inhibition at 0.001 µM: at 1 nM. It counts as biochemical.

A further assay deals with PI3Kγ. Also on record: method as in PMID 30582807. The note with it: cited from earlier work.
For another assay, the system named is MCF-7 cells. In words: CCK-8 cell viability assay, MCF-7. The note with it: Homo sapiens, MCF7, 72 h, mean (n = 3). It counts as cell-based. The procedure, abridged:
as §1

A further assay concerns the target T2, mTOR (Homo sapiens, UniProt P42345).
T2 construct: purchased Millipore 14-770
In words: LANCE Ultra assay, mTOR inhibition. The settings on record: mean (n = 2). The format is biochemical. Here is the method: The inhibitory activity of 22c on mTOR was determined by LANCE Ultra assay. In short, to a solution of kinase buffer, compound solution, ULight-4E-BP1 (Thr37/46) peptide substrate (PE, Catalog No. TRF0128-M), ATP, and mTOR protein (Millipore, Burlington, MA, USA, Catalog No. 14-770) were added. It was transferred to a 384-well plate and incubated at room temperature for 30 min. The LANCE detection buffer was added, which contained EDTA and Eu-antiphos-4E-BP1 (Thr37/46) antibody (PE, catalog number TRF0216-M). The plate was balanced at ambient temperature for 1 h, and the signal was detected via PerkinElmer Envision plate reader.
For orientation: Time-resolved FRET reads energy transfer from a long-lived donor to a nearby acceptor.

For assay [2], the system named is HCT-116 cells. In words: Flow cytometry analysis of cell cycle via PI staining. It counts as cell-based. The note with it: 24 h, dose-dependent. As to the method:
(§2) Hoechst 33342/PI staining was used to detect cell survival and apoptosis, and flow cytometry (FACS Verse, BD, Piscataway, NJ, USA) was used to measure cell cycle and survival. Briefly, HCT-116 cells were seeded in 6-well plates and cultured with 22c at different concentrations for 24 h. As for the Hoechst 33342/PI staining assay, staining buffer with Hoechst 33342/PI was added into each plate and incubated at 4 °C for 30 min. After washing with PBS, the stained cells were observed by fluorescence microscope (IX73, Olympus, Tokyo, Japan). As for detection of cell apoptosis by flow cytometry, cells were stained with Annexin V-FITC/PI. As for cell cycle assay, the cells were fixed with 70% ethanol at 4 °C overnight, and stained with PI/RNase solution for 30 min at 37 °C. All assays were measured by flow cytometry and analyzed by Flowjo 7.6.

Assay [3] relates to HCT-116 cells. In words: Flow cytometry analysis of apoptosis via Annexin V-FITC/PI staining. The settings on record: 24 h. It counts as cell-based. As to the method:
as §2
For orientation: A flow cytometer gives signals particle by particle.

Assay [4] concerns HCT-116 cells. In words: Hoechst 33342/PI staining of survival and apoptosis. The format is cell-based. The settings on record: 24 h. Here is the method: as §2
In assay [5] the test system is phosphorylation of AKT in HCT-116 cells. In words: Western blot of AKT phosphorylation. It counts as cell-based. The settings on record: 24 h. As to the method: HCT-116 cells were cultured in 100 mm culture dish to 70~80%, and treated with compound 22c at a specified concentration for 24 h. Then, the cells were scraped off with cell scraper, collected into a precooled 1.5 mL centrifuge tube, and lysed with RIPA buffer (Cwbio, Taizhou, China) containing PMSF (1 mM), NaF (1 mM), Na3VO4 (1 mM). The cells were lysed at 4 °C for 30 min, and the concentration of protein was determined by the BCA assay kit (Meilunbio, Dalian, China). Then the protein samples (40 μg) were used to conduct SDS-PAGE electrophoresis (Electrophoresis equipment: BIO-RAD, Hercules, CA, USA; Prefabricated-gel: ACE, Shanghai, China). After electrophoresis, the protein was transferred to PVDF membranes ([…], Millipore, USA). It was sealed with 5% non-fat milk for 1.5 h, washed with TBST for 4 times, and incubated with primary antibody at 4 °C overnight. Then, membranes were recovered to room temperature, washed with TBST for 4 times and incubated with secondary antibody (Huabio, Hangzhou, China) at room temperature for 1.5 h. After incubating, the membranes were washed with TBST for 4 times, visualized with an Amersham Imager 680 (GE, Windsor, CT, USA) through the enhanced ECL detection kit (Meilunbio, Dalian, China). […]

For another assay, the system named is PI3K. Set-up: method as in PMID 21388141. The settings on record: read-out: enzyme inhibition; cited from earlier work.

T1 sequence (P42336 whole entry): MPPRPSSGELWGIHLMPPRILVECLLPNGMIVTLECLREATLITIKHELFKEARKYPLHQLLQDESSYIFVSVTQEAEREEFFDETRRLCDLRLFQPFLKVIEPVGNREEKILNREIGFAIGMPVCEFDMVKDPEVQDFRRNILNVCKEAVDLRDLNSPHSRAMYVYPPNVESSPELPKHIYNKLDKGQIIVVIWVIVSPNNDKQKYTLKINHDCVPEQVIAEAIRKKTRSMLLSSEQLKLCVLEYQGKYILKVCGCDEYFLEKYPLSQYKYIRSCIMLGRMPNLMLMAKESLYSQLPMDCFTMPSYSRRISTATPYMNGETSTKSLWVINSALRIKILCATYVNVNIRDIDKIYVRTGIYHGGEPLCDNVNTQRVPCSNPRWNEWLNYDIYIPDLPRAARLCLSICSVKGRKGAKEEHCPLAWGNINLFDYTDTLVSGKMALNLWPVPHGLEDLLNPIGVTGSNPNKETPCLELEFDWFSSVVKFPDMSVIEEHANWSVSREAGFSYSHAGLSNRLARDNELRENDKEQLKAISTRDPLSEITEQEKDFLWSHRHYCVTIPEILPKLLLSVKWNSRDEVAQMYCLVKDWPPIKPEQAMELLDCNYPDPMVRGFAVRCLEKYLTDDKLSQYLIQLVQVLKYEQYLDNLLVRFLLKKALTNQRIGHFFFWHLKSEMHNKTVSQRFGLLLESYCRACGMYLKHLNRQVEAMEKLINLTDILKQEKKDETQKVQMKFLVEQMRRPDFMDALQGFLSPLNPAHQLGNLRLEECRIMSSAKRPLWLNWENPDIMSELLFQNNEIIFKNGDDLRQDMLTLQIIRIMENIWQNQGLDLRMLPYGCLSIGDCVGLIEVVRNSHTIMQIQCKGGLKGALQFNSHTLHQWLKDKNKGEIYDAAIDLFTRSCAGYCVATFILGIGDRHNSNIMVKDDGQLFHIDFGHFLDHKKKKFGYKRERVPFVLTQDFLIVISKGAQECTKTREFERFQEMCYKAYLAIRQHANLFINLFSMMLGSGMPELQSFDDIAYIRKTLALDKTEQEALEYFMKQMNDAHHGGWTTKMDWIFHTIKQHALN
T1 sequence (P27986 whole entry partner): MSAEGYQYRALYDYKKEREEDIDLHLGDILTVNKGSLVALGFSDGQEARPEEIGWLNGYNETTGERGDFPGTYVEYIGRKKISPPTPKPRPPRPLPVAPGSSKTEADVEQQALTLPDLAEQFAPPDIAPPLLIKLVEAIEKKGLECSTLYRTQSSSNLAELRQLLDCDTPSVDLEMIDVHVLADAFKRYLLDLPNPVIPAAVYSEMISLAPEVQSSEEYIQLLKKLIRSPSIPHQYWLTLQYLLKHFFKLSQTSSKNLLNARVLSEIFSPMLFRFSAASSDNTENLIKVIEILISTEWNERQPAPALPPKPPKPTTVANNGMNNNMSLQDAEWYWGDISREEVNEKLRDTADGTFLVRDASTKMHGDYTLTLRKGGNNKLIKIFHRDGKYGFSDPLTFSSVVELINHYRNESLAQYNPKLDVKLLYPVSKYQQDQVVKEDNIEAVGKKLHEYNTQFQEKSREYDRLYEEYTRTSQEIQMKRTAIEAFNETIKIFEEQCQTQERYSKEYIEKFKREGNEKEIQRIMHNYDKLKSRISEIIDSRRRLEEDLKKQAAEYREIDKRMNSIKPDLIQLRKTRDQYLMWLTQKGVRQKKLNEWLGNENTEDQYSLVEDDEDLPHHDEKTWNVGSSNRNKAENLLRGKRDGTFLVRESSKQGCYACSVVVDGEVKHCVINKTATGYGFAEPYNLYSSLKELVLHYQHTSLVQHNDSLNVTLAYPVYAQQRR
T2 sequence (P42345 1362-2549 limits assumed): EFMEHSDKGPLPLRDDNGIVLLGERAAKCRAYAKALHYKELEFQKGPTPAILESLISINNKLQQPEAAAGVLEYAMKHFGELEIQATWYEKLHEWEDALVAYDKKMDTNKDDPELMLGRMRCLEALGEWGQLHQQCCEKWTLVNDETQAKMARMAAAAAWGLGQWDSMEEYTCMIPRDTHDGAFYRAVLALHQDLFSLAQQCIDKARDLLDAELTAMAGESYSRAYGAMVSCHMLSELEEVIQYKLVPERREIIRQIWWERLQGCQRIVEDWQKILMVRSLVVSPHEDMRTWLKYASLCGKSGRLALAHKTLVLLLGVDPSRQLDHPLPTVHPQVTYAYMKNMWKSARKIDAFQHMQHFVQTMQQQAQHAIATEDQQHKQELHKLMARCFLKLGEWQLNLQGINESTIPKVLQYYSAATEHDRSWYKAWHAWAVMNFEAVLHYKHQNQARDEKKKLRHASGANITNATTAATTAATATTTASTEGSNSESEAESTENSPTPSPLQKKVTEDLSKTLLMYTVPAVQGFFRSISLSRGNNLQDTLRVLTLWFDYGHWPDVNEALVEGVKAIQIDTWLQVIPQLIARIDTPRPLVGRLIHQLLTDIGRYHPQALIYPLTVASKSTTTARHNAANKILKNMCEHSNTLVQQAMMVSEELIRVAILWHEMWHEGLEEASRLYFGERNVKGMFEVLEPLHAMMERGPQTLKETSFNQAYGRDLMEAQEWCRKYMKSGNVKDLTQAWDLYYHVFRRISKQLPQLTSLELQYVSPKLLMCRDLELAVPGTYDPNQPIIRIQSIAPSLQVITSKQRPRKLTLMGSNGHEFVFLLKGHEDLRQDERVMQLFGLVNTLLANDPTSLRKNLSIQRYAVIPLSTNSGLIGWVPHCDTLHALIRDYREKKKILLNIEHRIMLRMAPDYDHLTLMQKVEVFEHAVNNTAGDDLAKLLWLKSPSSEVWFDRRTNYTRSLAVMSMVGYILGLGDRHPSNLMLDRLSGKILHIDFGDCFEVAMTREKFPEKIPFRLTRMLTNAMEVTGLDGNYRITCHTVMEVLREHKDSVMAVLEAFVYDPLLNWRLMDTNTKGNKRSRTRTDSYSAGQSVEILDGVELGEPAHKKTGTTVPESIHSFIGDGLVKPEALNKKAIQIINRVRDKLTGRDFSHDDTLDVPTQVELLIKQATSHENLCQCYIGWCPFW

Usually inhibition stands for the share of the control response that was lost under treatment. A low value points to a response near the control. The term Ki denotes a dissociation constant, usually derived from enzyme kinetics or from competition with a known ligand. With `COc1ncc(-c2ccc3nccc(-c4ccnnc4)c3c2)cc1NS(=O)(=O)c1ccc(F)cc1F` [Omipalisib, reference compound], the IC50 in the assay with HCT-116 cells [1] (Table 1, 72 h) is 0.02 ± 0.01 µM; in the assay on MCF-7 cells (Table 1), above 4 µM. On PI3Kα (Table 1), this compound came in with an inhibition at 0.001 µM of 89%. The Ki at PI3Kγ is […].
In the case of `COc1ncc(-c2ccc3nccc(-c4ncc(C(=O)NC(C)C)o4)c3c2)cc1NS(=O)(=O)c1ccc(F)cc1F` [22c, 2-(6-(5-((2,4-difluorophenyl)sulfonamido)-6-methoxypyridin-3-yl)quinolin-4-yl)-N-isopropyloxazole-5-carboxamide], the IC50 was 23 nM against mTOR; 0.02 ± 0.01 µM in the assay with HCT-116 cells [1] (Table 3, 72 h); 0.22 nM against PI3Kα (mean (n = 2)); 0.13 ± 0.03 µM in the assay with MCF-7 cells (Table 3). For the same compound, the cell cycle arrest entry in the assay on HCT-116 cells [2] is “inhibited the cell cycle in G0/G1 phase”. At PI3Kα (Table 3), the inhibition at 0.001 µM amounted to 82%. Moreover, the “Q1 of Annexin V-FITC/PI plot” value with HCT-116 cells [3] (0.25 μM) was 1.95; in the assay on HCT-116 cells [3] (1 μM), 3.13; in the assay with HCT-116 cells [3] (4 μM) it was 2.69. The “Q2 of Annexin V-FITC/PI plot” value in the assay on HCT-116 cells [3] (0.25 μM) worked out at 14.1; in the assay with HCT-116 cells [3] (1 μM), 38.0; with HCT-116 cells [3] (4 μM) it was 58.3. Further, the “Q3 of Annexin V-FITC/PI plot” value in the assay on HCT-116 cells [3] (0.25 μM) is listed as 0.080; with HCT-116 cells [3] (1 μM), 0.14; in the assay with HCT-116 cells [3] (4 μM), 0.17. Further, the “Q4 of Annexin V-FITC/PI plot” value in the assay with HCT-116 cells [3] (0.25 μM) is 83.9; in the assay with HCT-116 cells [3] (1 μM), 58.7; in the assay on HCT-116 cells [3] (4 μM), 38.9. For the same compound, the “apoptosis (flow cytometry), in words” value with HCT-116 cells [3] (dose-dependent) is recorded as “induce apoptosis”. In addition, in the assay on HCT-116 cells [4], the “apoptosis and necrosis (Hoechst33342/PI staining)” value is “could significantly affect apoptosis and necrosis of HCT-116 cells”. Also, the “phosphorylation of AKT (Western blot)” value in assay [5] is on record as “could block the phosphorylation process of AKT at low concentrations”.
As to `CCOC(=O)c1cnc2ccc(-c3cncc(NS(=O)(=O)c4ccccc4)c3)cn12` [HS-173, reference compound], the IC50 against mTOR is 110 nM; in the assay with HCT-116 cells [1] (Table 1, 72 h) it was 0.19 ± 0.05 µM; in the assay on PI3K, […]; with MCF-7 cells (Table 1), 1.76 ± 0.44 µM.
